From patent US11623922B2, “Compounds” (INFLAZOME LIMITED, priority 2017, dated 2023) come the findings set out here.

The IC50 is the concentration at which inhibition is half-maximal. Broadly, the AUC is concentration integrated over time. Low values mean less exposure, high ones more exposure. For orientation: clearance means the rate of elimination divided by the concentration. Low readings indicate a low capacity for elimination, high ones a high capacity for elimination. In general, half-life refers to how long it takes for the measured level to halve.

Series [1] has as its target T1, NLRP3 (Homo sapiens, UniProt Q96P20). The series is described as follows: THP-1 cells pyroptosis assay. As to conditions: NLRP3 inhibitory activity, 1.0 μg/ml LPS, nigericin 5 μM, resazurin readout. The class given is cell-based. Set-up: Seed THP-1 cells (25,000 cells/well) containing 1.0 μg/ml LPS in 40 μl of RPMI medium; host or cells: THP-1 cells. On the procedure:
The cells were routinely passaged and grown to confluency (˜10^6 cells/ml). On the day of the experiment, THP-1 cells were harvested and resuspended into RPMI medium (without FBS). The cells were then counted and viability (>90%) checked by Trypan blue (Sigma #T8154). […] To this diluted cell solution was added LPS (Sigma #L4524) to give a 1 μg/ml Final Assay Concentration (FAC). 40 μl of the final preparation was aliquoted into each well of a 96-well plate. The plate thus prepared was used for compound screening.
The following method step-by-step assay was followed for compound screening. • 1. […] Incubate for 3 hrs at 37° C. in 5% CO2 • 4. Add 5 μl nigericin (Sigma #N7143) (FAC 5 μM) to all wells • 5. Incubate for 1 hr at 37° C. and 5% CO2 • 6. At the end of the incubation period, spin plates at 300×g for 3 mins and remove supernatant • 7. Then add 50 μl of resazurin (Sigma #R7017) (FAC 100 μM resazurin in RPMI medium without FBS) and incubate plates for a further 1-2 hrs at 37° C. and 5% CO2 • 8. […] IC50 data is fitted to a non-linear regression equation (log inhibitor vs response-variable slope 4-parameters)

For series [2], the target named is T1, NLRP3. The series is described as follows: Human whole blood IL1β release assay. The conditions noted are these: NLRP3 inhibitory activity, 1 μg/ml LPS, nigericin 10 μM, IL-1β by AlphaLisa, read-out: HWB IC50. Set-up: Plate out 80 μl of whole blood containing 1 μg/ml of LPS in 96-well, clear bottom cell culture plate; from tissue; host or cells: human whole blood from healthy donors. The class given is cell-based. On the procedure:
For systemic delivery, the ability to inhibit NLRP3 when the compounds are present within the bloodstream is of great importance. For this reason, the NLRP3 inhibitory activity of a number of compounds in human whole blood was investigated in accordance with the following protocol.
Human whole blood in Li-heparin tubes was obtained from healthy donors from a volunteer donor panel. • 1. […] Incubate for 3 hrs at 37° C., 5% CO2 • 4. Add 10 μl nigericin (Sigma #N7143) (10 μM FAC) to all wells • 5. Incubate for 1 hr at 37° C., 5% CO2 • 6. At the end of the incubation period, spin plates at 300×g for 5 mins to pellet cells and remove 20 μl of supernatant and add to 96-well v-bottom plates for IL-1β analysis (note: these plates containing the supernatants can be stored at −80° C. to be analysed at a later date) • 7. IL-1β was measured according to the manufacturer protocol (Perkin Elmer-AlphaLisa IL-1 Kit AL220F-5000) • 8. IC50 data is fitted to a non-linear regression equation (log inhibitor vs response-variable slope 4-parameters)

The nature of series [3]: PK protocol, intravenous administration in rats. The class given is in vivo. The conditions noted are these: rat, 1 mg/kg, male Sprague Dawley rats, plasma. On the procedure: Pharmacokinetic parameters were determined in male Sprague Dawley rats (Vital River Laboratory Animal Technology Co Ltd, Beijing, China, 7-9 weeks old). Animals were individually housed during the study and maintained under a 12 h light/dark cycle. Animals had free access to food and water.
For intravenous administration, compounds were formulated as a solution in DMSO:PBS [10:90] in 2 mL/kg dosing volume and administered via tail vein.
Serial blood samples (about 200 μL) were taken from each animal at each of 8 time-points post dose (0.083, 0.25, 0.5, 1, 2, 4, 8 and 24 h). Samples were held on ice for no longer than 30 minutes before centrifugation (5,696 rpm (3,000 g) for 15 minutes) for plasma generation. Plasma was frozen on dry ice prior to bioanalysis. PK parameters were generated from LC-MS/MS data using Phoenix WinNonlin 6.3 software.

Each structure is given as a SMILES string.

T1 sequence (Q96P20 whole entry): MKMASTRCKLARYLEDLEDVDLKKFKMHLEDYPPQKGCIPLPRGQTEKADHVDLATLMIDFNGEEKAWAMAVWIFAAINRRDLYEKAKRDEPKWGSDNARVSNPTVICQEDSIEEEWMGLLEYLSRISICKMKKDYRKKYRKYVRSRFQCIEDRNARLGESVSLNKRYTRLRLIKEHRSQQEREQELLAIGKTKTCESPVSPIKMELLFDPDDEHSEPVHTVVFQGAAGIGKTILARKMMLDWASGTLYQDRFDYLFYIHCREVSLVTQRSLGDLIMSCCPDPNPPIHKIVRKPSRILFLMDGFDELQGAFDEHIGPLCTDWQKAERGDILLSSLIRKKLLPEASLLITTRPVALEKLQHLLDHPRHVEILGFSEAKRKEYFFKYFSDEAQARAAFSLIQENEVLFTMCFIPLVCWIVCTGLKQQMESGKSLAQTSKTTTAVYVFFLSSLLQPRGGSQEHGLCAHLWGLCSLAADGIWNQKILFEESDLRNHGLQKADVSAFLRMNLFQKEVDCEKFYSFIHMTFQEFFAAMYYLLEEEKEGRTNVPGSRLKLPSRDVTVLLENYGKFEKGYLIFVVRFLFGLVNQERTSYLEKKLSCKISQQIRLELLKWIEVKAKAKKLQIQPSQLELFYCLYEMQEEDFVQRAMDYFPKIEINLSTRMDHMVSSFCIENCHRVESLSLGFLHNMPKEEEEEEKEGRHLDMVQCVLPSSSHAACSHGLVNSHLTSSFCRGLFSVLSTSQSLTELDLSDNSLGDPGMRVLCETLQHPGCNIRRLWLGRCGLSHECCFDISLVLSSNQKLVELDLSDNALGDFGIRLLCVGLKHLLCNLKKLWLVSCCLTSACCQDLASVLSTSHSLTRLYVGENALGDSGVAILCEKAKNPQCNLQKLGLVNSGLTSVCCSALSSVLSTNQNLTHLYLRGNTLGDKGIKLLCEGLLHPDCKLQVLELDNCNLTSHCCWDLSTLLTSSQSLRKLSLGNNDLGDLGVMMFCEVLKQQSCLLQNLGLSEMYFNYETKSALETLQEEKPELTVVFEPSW

With `COc1cc(-c2ccc3c(c2NC(=O)NS(=N)(=O)c2nn(C(C)C)cc2Cl)CCC3)ccn1` (stereo not drawn) [Example 11, 4-Chloro-1-isopropyl-N-((5-(2-methoxypyridin-4-yl)-2,3-dihydro-1H-inden-4-yl)carbamoyl)-1H-pyrazole-3-sulfonimidamide], the 50% inhibitory concentration (IC50) in series [1] was under 100 nM. Also, the IC50 in series [2] was under 1000 nM. In series [3], this compound had an AUC of 2720 ng·h/mL, a clearance of 6.1 mL/min/kg and a half-life of 60 min. The Vd in series [3] (read-out: Vdss) turned out to be 0.45 L/kg.
